Here are results for five compounds from US9624210B2, “Amino-pyrimidine-containing spleen tyrosine kinase (Syk) inhibitors” (Merck Sharp & Dohme Corp., priority 2012, dated 2017).

A value given as a limit tells only on which side of the number the result lay.

For series [1], the target named is recombinant human GST-Syk (Homo sapiens (Human), UniProt P43405). Description: Homogeneous Time-Resolved Fluorescence (HTRF) assay for the recombinant human Syk enzyme. Conditions: 10-dose titration 10 μM to 0.508 nM; 25 μM ATP; values below lowest test concentration given as <0.508. The class given is biochemical. As to the method:
Assay 1: Homogeneous Time-Resolved Fluorescence (HTRF) Assay for the Recombinant Human Syk Enzyme A recombinant GST-hSyk fusion protein was used to measure potency of compounds to inhibit human Syk activity. The recombinant human GST-Syk (Carna Biosciences #08-176) (5 pM final concentration total protein) was incubated with various concentrations of the inhibitor diluted in DMSO (0.1% final concentration) for 10 minutes at room temperature in 15 mM Tris-HCl (pH 7.5), 0.01% Tween 20, 2 mM DTT in 384 well plate format. To initiate the reaction the biotinylated substrate peptide (250 nM final concentration) that contains the phosphorylation site for Syk was added with magnesium (5 mM final concentration) and ATP (25 μM final concentration). The final volume of the reaction was 10 μL. Phosphorylation of the peptide was allowed to proceed for 45′ at room temperature. To quench the reaction and detect the phosphorylated product, 2 nM of a Europium-anti-phosphotyrosine antibody (Perkin Elmer #AD0161) and 70 nM SA-APC (Perkin-Elmer #CR130-100) were added together in 15 mM Tris pH 7.5, 40 mM EDTA, 0.01% Tween 20. The final volume of the quenching solution was 10 μL. The resulting HTRF signal was measured after 30 minutes on a EnVision (Perkin-Elmer) reader using a time-resolved fluorescence protocol. […] Table A provides the IC50 values for representative compounds of the invention.

Series [2] deals with phosphorylated Syk enzyme (Homo sapiens (Human), UniProt P43405). Kind of series: Dissociation rate: enzyme-inhibitor dilution and activity recovery assay (TR-FRET). As to conditions: for recovery of Syk enzyme activity following dilution of the inhibitor:Syk complex (relative to the DMSO control): 100-fold dilution after 2 hours preincubation, FIG. 1 and FIG. 2. It counts as biochemical. As to the method:
Assay 2: Determination of the Dissociation Rate for Compound 1B
The dissociation rate (koff) of inhibitor:phosphorylated Syk complexes was examined using an enzyme-inhibitor dilution and activity recovery assay (R. A. Copeland, Enzymes: A practical introduction to structure, Mechanism, and Data Analysis Wiley-VCH 2000 and R. A. Copeland, Evaluation of Enzyme Inhibitors in Drug Discovery John Wiley & Sons, 2005). In this assay the recovery of kinase activity following dilution is measured using a time resolved fluorescence resonance energy transfer (TR-FRET) assay. The enzyme (at 100× the usual assay concentration) and inhibitor (at 20× the usual assay concentration) are preincubated for 2 hours to ensure equilibrium is reached. The samples are then diluted 100-fold into assay buffer (1× Kinase buffer [Invitrogen, Inc], 2 mM DTT, 0.05% BSA) containing a saturating amount of competitive substrate (1 mM ATP, to minimize rebinding of inhibitor) and peptide substrate (1 μM). The final nominal enzyme concentration following dilution is 4 pM. Samples (1 μL) are periodically withdrawn from the assay plate and transferred into 50 uL of detection/quench buffer (10 nM streptavidin labeled Dylite (Perkin Elmer) and 3 nM Eu-labeled antiphosphotyrosine antibody (pY20, Perkin Elmer). After 30 minutes incubation, the assay plate was read on the Envision reader (Perkin Elmer) using the following parameters: excitation wavelength of 320 nm, and dual emission monitoring at 616 and 665 nm. The delay time was 20 μs with a 200 μs window time. The time between flashes was 16600 μs and 20 flashes were used per well.
The recovery of enzyme activity is fit to the following equation (Morrison, J. F., and Walsh, C. T., (1988) Advances in Enzymology and Related Areas of Molecular Biology, 61 201-301): P=vst+[(vi−vs)/kobs][1−exp(−kobst)]+P0 where P is the quantity of phosphorylated peptide product produced, P0 is the concentration of phosphopeptide product present at time=0 (immediately following dilution), vs is the steady-state velocity, vi is the rate at time=0, and kobs is the rate constant describing activity recovery.

For series [3], the system named is allergic rhinitis. Conditions: phase II clinical trial; cited from earlier work.
The subject of series [4] is allergic rhinitis. Conditions: dosed intranasally, phase I/II study; cited from earlier work.

Turning to `Cc1cc(Nc2nccc(C(F)(F)F)n2)cc(-c2cnc(C3(O)CCCc4cc(C(=O)O)ccc43)s2)c1` (racemic) [Compound 1, 5-hydroxy-5-(5-(3-methyl-5-((4-(trifluoromethyl)pyrimidin-2-yl)amino)phenyl)thiazol-2-yl)-5,6,7,8-tetrahydronaphthalene-2-carboxylic acid], the concentration for half-maximal inhibition (IC50) in series [1] is less than 0.508 nM.

On to `Cc1cc(Nc2nccc(C(F)(F)F)n2)cc(-c2cnc([C@]3(O)CCCc4cc(C(=O)O)ccc43)s2)c1` [Compound 1A, (S)-5-hydroxy-5-(5-(3-methyl-5-((4-(trifluoromethyl)pyrimidin-2-yl)amino)phenyl)thiazol-2-yl)-5,6,7,8-tetrahydronaphthalene-2-carboxylic acid], for which, in series [1], the IC50 was determined as 1.6 nM.

Consider `Cc1cc(Nc2nccc(C(F)(F)F)n2)cc(-c2cnc([C@@]3(O)CCCc4cc(C(=O)O)ccc43)s2)c1` [Compound 1B, (R)-5-hydroxy-5-(5-(3-methyl-5-((4-(trifluoromethyl)pyrimidin-2-yl)amino)phenyl)thiazol-2-yl)-5,6,7,8-tetrahydronaphthalene-2-carboxylic acid], for which, in series [2], the “dissociation rate of the inhibitor:phosphorylated Syk complex” value is “slow dissociation rate” and the “recovery of Syk enzyme activity following dilution of the inhibitor:Syk complex (relative to the DMSO control)” value is on record as “only a fraction of the activity returned (relative to the DMSO control) after two hours”. Also, the “half-life of the inhibitor:Syk complex” value in series [2] (after 100-fold dilution into 1 mM ATP, FIG. 2) was greater than 2 h. Further, the IC50 in series [1] was less than 0.508 nM.

For `Cc1cc(Nc2nccc(C(C)C)n2)cc(-c2cnc([C@]3(O)CC[C@@H](C(=O)O)CC3)s2)c1` [Compound A, reference compound], the “recovery of Syk enzyme activity following dilution of the inhibitor:Syk complex (relative to the DMSO control)” value in series [2] is reported as “fully recovered (relative to the DMSO control) within the first five minutes after dilution”. The concentration for half-maximal inhibition (IC50) in series [1] was less than 0.508 nM.

As for `Oc1cccc(Nc2ncc(F)c(Nc3cccc(O)c3)n2)c1` [Compound R112], in the series on allergic rhinitis [3], the efficacy versus placebo result is listed as “lack of efficacy”. In the series with allergic rhinitis [4], the PGD2 entry was “statistically significant decrease” and the clinical safety entry is recorded as “safe across a range of indicators”.
